Results: US5466671A, “Apidaecin-type peptide antibiotics with improved activities and/or different antibacterial spectrum” (priority 1994, dated 1995)
Residues, ends and D or L forms follow the SMILES beside them.

What was measured:
[1] = system: gram positives; conditions: cited from earlier work
[2] = system: gram negative bacteria; conditions: many gram negative bacteria; cited from earlier work
[3] = system: Shigella dysenteriae; type: cell-based
[4] = system: Klebsiella pneumoniae; test: Inhibition zone assay (agar plate); type: cell-based; conditions: for inhibition zone diameter (number of plus signs): agar plate, 50 nanomoles/well, 3 mm wells
[5] = system: Salmonella typhimurium; test: Inhibition zone assay (agar plate); type: cell-based; conditions: for inhibition zone diameter (number of plus signs): agar plate, 50 nanomoles/well, 3 mm wells
[6] = system: Acinetobacter calcoaceticus; test: Inhibition zone assay (agar plate); type: cell-based; conditions: for inhibition zone diameter (number of plus signs): agar plate, 50 nanomoles/well, 3 mm wells
[7] = system: Agrobacterium tumefaciens; test: Inhibition zone assay (agar plate); type: cell-based; conditions: for inhibition zone diameter (number of plus signs): agar plate, 50 nanomoles/well, 3 mm wells
[8] = system: strains tested; type: cell-based; conditions: agar plate
[9] = system: E. coli D22; type: cell-based; conditions: 50 nanomoles per well (3 mm diameter)
[10] = system: Enterobacter cloacae; test: Inhibition zone assay (agar plate); type: cell-based; conditions: for inhibition zone diameter (number of plus signs): agar plate, 50 nanomoles/well, 3 mm wells
[11] = system: Salmonella typhi; type: cell-based; conditions: for inhibition zone diameter (number of plus signs): agar plate, 50 nanomoles/well, 3 mm wells
[12] = system: Erwinia amylovora; test: Inhibition zone assay (agar plate); type: cell-based; conditions: for inhibition zone diameter (number of plus signs): agar plate, 50 nanomoles/well, 3 mm wells
[13] = system: Escherichia coli (ATCC11775); test: Inhibition zone assay (agar plate); type: cell-based; conditions: for inhibition zone diameter (number of plus signs): agar plate, 50 nanomoles/well, 3 mm wells
[14] = system: Haemophilus influenzae; test: Inhibition zone assay (agar plate); type: cell-based; conditions: 50 nanomoles/well, 3 mm wells
[15] = system: E. coli Apid^R; test: Minimal inhibitory concentration (liquid culture); type: cell-based; conditions: inoculum 1000 CFU/ml; a-b = highest concentration with growth - lowest without growth
Source text: For details see `Experimental Procedures`.

[16] = system: E. coli 25922; test: Minimal inhibitory concentration (liquid culture); conditions: inoculum 1100 CFU/ml; a-b = highest concentration with growth - lowest without growth
[17] = system: E. coli 11775; test: Minimal inhibitory concentration (liquid culture); conditions: a-b = highest concentration with growth - lowest without growth
[18] = system: E. coli 23802; test: Minimal inhibitory concentration (liquid culture); conditions: inoculum 5000 CFU/ml; a-b = highest concentration with growth - lowest without growth
[19] = system: A. calcoaceticus; test: Minimal inhibitory concentration (liquid culture); conditions: inoculum 16 × 10^6 CFU/ml; a-b = highest concentration with growth - lowest without growth
[20] = system: Morganella morganii; test: Inhibition zone assay (agar plate); type: cell-based; conditions: 50 nanomoles/well, 3 mm wells
[21] = system: Y. enterocolitica; test: Minimal inhibitory concentration (liquid culture); conditions: inoculum 5000 CFU/ml; a-b = highest concentration with growth - lowest without growth
[22] = system: M. morganii; test: Minimal inhibitory concentration (liquid culture); conditions: inoculum 400 CFU/ml; a-b = highest concentration with growth - lowest without growth
[23] = system: S. typhimurium; test: Minimal inhibitory concentration (liquid culture); conditions: inoculum 8 × 10^6 CFU/ml; a-b = highest concentration with growth - lowest without growth
[24] = system: Campylobacter jejuni; test: Inhibition zone assay (agar plate); type: cell-based; conditions: 50 nanomoles/well, 3 mm wells
[25] = system: Escherichia coli (K514); type: cell-based; conditions: agar plate, 50 nanomoles/well, 3 mm wells
[26] = system: Legionella pneumophila; type: cell-based; conditions: agar plate, 50 nanomoles/well, 3 mm wells
[27] = system: Pseudomonas syringae; test: Inhibition zone assay (agar plate); type: cell-based; conditions: agar plate, 50 nanomoles/well, 3 mm wells
[28] = system: Rhizobium meliloti; test: Inhibition zone assay (agar plate); type: cell-based; conditions: 50 nanomoles/well, 3 mm wells
[29] = system: Escherichia coli (11775 Apid R); type: cell-based; conditions: agar plate, 50 nanomoles/well, 3 mm wells
[30] = system: Yersinia enterocolitica; test: Inhibition zone assay (agar plate); type: cell-based; conditions: 50 nanomoles/well, 3 mm wells
[31] = system: Francisella tularensis; type: cell-based; conditions: agar plate, 50 nanomoles/well, 3 mm wells
[32] = 50 nanomoles per well (3 mm diameter)

Compound	antibacterial activity, overall (inhibition zone) [8]	inhibition zone diameter (number of plus signs) [14]	minimal inhibitory concentration (MIC) [15] [µg/mL]	minimal inhibitory concentration (MIC) [16] [µg/mL]	inhibition zone diameter (number of plus signs) [4]	inhibition zone diameter (number of plus signs) [5]	minimal inhibitory concentration (MIC) ([17]; inoculum 16 × 10^6 CFU/ml) [µg/mL]	minimal inhibitory concentration (MIC) ([17]; inoculum 1200 CFU/ml) [µg/mL]	minimal inhibitory concentration (MIC) [18] [µg/mL]	minimal inhibitory concentration (MIC) [19] [µg/mL]	inhibition zone diameter (number of plus signs) [6]	inhibition zone diameter (number of plus signs) [20]	minimal inhibitory concentration (MIC) [21] [µg/mL]	inhibition zone diameter (number of plus signs) [7]	minimal inhibitory concentration (MIC) [22] [µg/mL]	minimal inhibitory concentration (MIC) [23] [µg/mL]	inhibition zone diameter (number of plus signs) [10]	inhibition zone diameter (number of plus signs) [11]	inhibition zone diameter (number of plus signs) [12]	inhibition zone diameter (number of plus signs) [13]	further results
CC[C@H](C)[C@H](NC(=O)[C@H](Cc1ccc(O)cc1)NC(=O)[C@@H](NC(=O)[C@@H]1CCCN1C(=O)[C@H](CCCNC(=N)N)NC(=O)[C@H](CC(N)=O)NC(=O)[C@H](CC(N)=O)NC(=O)CN)C(C)C)C(=O)N1CCC[C@H]1C(=O)N[C@@H](CCC(N)=O)C(=O)N1CCC[C@H]1C(=O)N[C@@H](CCCNC(=N)N)C(=O)N1CCC[C@H]1C(=O)N1CCC[C@H]1C(=O)N[C@@H](Cc1cnc[nH]1)C(=O)N1CCC[C@H]1C(=O)N[C@@H](CCCNC(=N)N)C(=O)N[C@@H](CC(C)C)C(=O)O [Apidaecin] (H-GNNRPVYIPQPRPPHPRL-OH)																					effect on gram positives [1]: unaffected; dose inhibiting viability [2]: nanomolar doses
CC[C@H](C)[C@H](NC(=O)[C@@H]1CCCN1C(=O)[C@@H](NC(=O)[C@H](CCC(N)=O)NC(=O)[C@@H]1CCCN1C(=O)[C@H](CO)NC(=O)[C@@H]1CCCN1C(=O)[C@H](CCCNC(=N)N)NC(=O)[C@@H](N)CO)C(C)C)C(=O)N[C@@H](CCCNC(=N)N)C(=O)N1CCC[C@H]1C(=O)N[C@@H](CO)C(=O)N[C@@H](CCC(N)=O)C(=O)N1CCC[C@H]1C(=O)N[C@@H](CCCNC(=N)N)C(=O)N1CCC[C@H]1C(=O)N[C@@H](CCC(N)=O)C(=O)N1CCC[C@H]1C(=O)N[C@@H](Cc1ccccc1)C(=O)N[C@@H](CCCCN)C(=O)N1CCC[C@H]1C(=O)N[C@@H](CCCNC(=N)N)C(=O)N1CCC[C@H]1C(=O)N[C@@H](CCC(N)=O)C(=O)N[C@@H](CCC(N)=O)C(=O)N[C@H](C(=O)N1CCC[C@H]1C(=O)N1CCC[C@H]1C(=O)N[C@@H](CCCNC(=N)N)C(=O)N[C@H](C(=O)N1CCC[C@H]1C(=O)N[C@@H](Cc1c[nH]cn1)C(=O)N1CCC[C@H]1C(=O)N[C@@H](CCCNC(=N)N)C(=O)N[C@@H](CC(C)C)C(=O)O)[C@@H](C)O)C(C)C [PAB-FT 1-35, SRPSPQVPIRPSQPRPQPFKPRPQQVPPRTPHPRL] (H-SRPSPQVPIRPSQPRPQPFKPRPQQVPPRTPHPRL-OH)	has antibacterial activity																				Inhibition zones: in mm diameter [3, 32]: 12 mm; Inhibition zones: in mm diameter [4, 32]: 9 mm; Inhibition zones: in mm diameter [5, 32]: 7 mm; Inhibition zones: in mm diameter [6, 32]: 7 mm; Inhibition zones: in mm diameter [7, 32]: 5 mm; Inhibition zones: in mm diameter [9]: 14 mm; Inhibition zones: in mm diameter [10, 32]: 11 mm; Inhibition zones: in mm diameter [11, 32]: 14 mm; Inhibition zones: in mm diameter [12, 32]: 5 mm; Inhibition zones: in mm diameter [13, 32]: 10 mm
CC[C@H](C)[C@H](NC(=O)[C@@H]1CCCN1C(=O)[C@H](C)NC(=O)[C@@H]1CCCN1C(=O)[C@H](CCCNC(=N)N)NC(=O)[C@@H]1CCCN1C(=O)[C@H](CCCCN)NC(=O)[C@@H](N)CC(N)=O)C(=O)N[C@@H](CCCCN)C(=O)N1CCC[C@H]1C(=O)N[C@@H](CCCNC(=N)N)C(=O)N1CCC[C@H]1C(=O)N1CCC[C@H]1C(=O)N[C@@H](Cc1c[nH]cn1)C(=O)N1CCC[C@H]1C(=O)N[C@@H](CCCNC(=N)N)C(=O)N[C@@H](CC(C)C)C(=O)O [Cd 2-, Asn--Lys--Pro--Arg--Pro--Ala--Pro--Ile--Lys--Pro--Arg--Pro--Pro--His--Pro--Arg--Leu] (H-NKPRPAPIKPRPPHPRL-OH)		++ ((++) 7-9 mm)	5 to 10	0.5 to 1	++ ((++) 7-9 mm)	+ ((+) 5-6 mm)	0.5 to 1	0.5 to 1	10 to 20	10 to 20	+ ((+) 5-6 mm)	++ ((++) 7-9 mm)	> 40	++++ ((++++) 15-19 mm)	1 to 5	1 to 5	+++ ((+++) 10-14 mm)	+ ((+) 5-6 mm)	+++ ((+++) 10-14 mm)	+++ ((+++) 10-14 mm)	inhibition zone diameter (number of plus signs) ([3]; agar plate, 50 nanomoles/well, 3 mm wells): ++ ((++) 7-9 mm); inhibition zone diameter (number of plus signs) [24]: +++ ((+++) 10-14 mm); inhibition zone diameter (number of plus signs) [25]: ++ ((++) 7-9 mm); inhibition zone diameter (number of plus signs) [26]: ++ ((++) 7-9 mm); inhibition zone diameter (number of plus signs) [27]: +++ ((+++) 10-14 mm); inhibition zone diameter (number of plus signs) [28]: +++ ((+++) 10-14 mm); inhibition zone diameter (number of plus signs) [29]: ++ ((++) 7-9 mm)
CC[C@H](C)[C@H](NC(=O)[C@@H]1CCCN1C(=O)[C@H](C)NC(=O)[C@@H]1CCCN1C(=O)[C@H](CCCNC(=N)N)NC(=O)[C@@H]1CCCN1C(=O)[C@H](CCCNC(=N)N)NC(=O)[C@@H](N)CC(N)=O)C(=O)N[C@@H](CCC(N)=O)C(=O)N1CCC[C@H]1C(=O)N[C@@H](CCCNC(=N)N)C(=O)N1CCC[C@H]1C(=O)N1CCC[C@H]1C(=O)N[C@@H](Cc1c[nH]cn1)C(=O)N1CCC[C@H]1C(=O)N[C@@H](CCCNC(=N)N)C(=O)N[C@@H](CC(C)C)C(=O)O [Cd 1-, Asn--Arg--Pro--Arg--Pro--Ala--Pro--Ile--Gln--Pro--Arg--Pro--Pro--His--Pro--Arg--Leu] (H-NRPRPAPIQPRPPHPRL-OH)		+++ ((+++) 10-14 mm)	> 40	0.5 to 1	++ ((++) 7-9 mm)	+++ ((+++) 10-14 mm)	0.5 to 1	0.5 to 1	5 to 10	> 20	++ ((++) 7-9 mm)	++ ((++) 7-9 mm)	5 to 10	+++ ((+++) 10-14 mm)	20 to 40	0.5 to 1	+++ ((+++) 10-14 mm)	++ ((++) 7-9 mm)	++++ ((++++) 15-19 mm)	+++ ((+++) 10-14 mm)	inhibition zone diameter (number of plus signs) [27]: ++++ ((++++) 15-19 mm); inhibition zone diameter (number of plus signs) [30]: ++ ((++) 7-9 mm); inhibition zone diameter (number of plus signs) [28]: ++++ ((++++) 15-19 mm); inhibition zone diameter (number of plus signs) [31]: ++ ((++) 7-9 mm); inhibition zone diameter (number of plus signs) [29]: ++ ((++) 7-9 mm)
CC(C)C[C@H](NC(=O)[C@H](CCCNC(=N)N)NC(=O)[C@@H]1CCCN1C(=O)[C@H](Cc1c[nH]cn1)NC(=O)[C@@H]1CCCN1C(=O)[C@@H](NC(=O)[C@H](CCCNC(=N)N)NC(=O)[C@@H]1CCCN1C(=O)[C@@H]1CCCN1C(=O)[C@@H](NC(=O)[C@H](CCC(N)=O)NC(=O)[C@H](CCC(N)=O)NC(=O)[C@@H]1CCCN1C(=O)[C@H](CCCNC(=N)N)NC(=O)[C@@H]1CCCN1C(=O)[C@H](CCCCN)NC(=O)CN)C(C)C)[C@@H](C)O)C(=O)O [HoGT, G K P R P Q Q V P P R T P H P R L] (H-GKPRPQQVPPRTPHPRL-OH)	lack detectable antibacterial activity																				
CC(C)C[C@H](NC(=O)[C@H](CCCNC(=N)N)NC(=O)[C@@H]1CCCN1C(=O)[C@H](Cc1c[nH]cn1)NC(=O)[C@@H]1CCCN1C(=O)[C@@H](NC(=O)[C@H](CCCNC(=N)N)NC(=O)[C@@H]1CCCN1C(=O)[C@@H]1CCCN1C(=O)[C@@H](NC(=O)[C@H](CCC(N)=O)NC(=O)[C@H](CCC(N)=O)NC(=O)[C@@H]1CCCN1C(=O)[C@H](CCCNC(=N)N)NC(=O)[C@@H]1CCCN1C(=O)[C@H](CCCCN)NC(=O)[C@@H](N)Cc1ccccc1)C(C)C)[C@@H](C)O)C(=O)O [HoFT, F K P R P Q Q V P P R T P H P R L] (H-FKPRPQQVPPRTPHPRL-OH)	lack detectable antibacterial activity																				
